Data from PMC5624297, “Trichoplax adhaerens reveals a network of nuclear receptors sensitive to 9-cis-retinoic acid at the base of metazoan evolution” (PeerJ, 2017).

Molecular target: T1, TaRXR (T. adhaerens RXR; GST-TaRXR) (Trichoplax adhaerens, UniProt A0A290WNL1)
T1 construct: full-length RXR cDNA in pGEX-2T, E. coli BL21 pLysS; N-terminal GST fusion on glutathione beads or thrombin-cleaved; starts MEDRSFK (from printed primer)
T1 sequence (A0A290WNL1 1-345): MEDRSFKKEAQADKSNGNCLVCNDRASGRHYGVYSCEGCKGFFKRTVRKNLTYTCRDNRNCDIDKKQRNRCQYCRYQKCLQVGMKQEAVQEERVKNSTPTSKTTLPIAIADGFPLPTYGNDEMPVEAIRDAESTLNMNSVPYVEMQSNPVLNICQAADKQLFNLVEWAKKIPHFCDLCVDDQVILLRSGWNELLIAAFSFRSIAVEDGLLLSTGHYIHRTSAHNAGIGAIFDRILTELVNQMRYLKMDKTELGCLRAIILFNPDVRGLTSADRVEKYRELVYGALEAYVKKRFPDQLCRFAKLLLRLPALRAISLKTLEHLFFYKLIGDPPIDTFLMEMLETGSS
Assay: radioligand saturation binding (GST-TaRXR on beads) and competition (thrombin-cleaved TaRXR)
Conditions: labelled compound (3H); 50 mM Tris-HCl pH 7.4, 1 mM EDTA, 120 mM KCl, 5 mM DTT, 8% glycerol, 0.3-0.5% CHAPS; 2 h on ice in dark

SMILES: CC1=C(/C=C/C(C)=C\C=C\C(C)=C\C(=O)O)C(C)(C)CCC1 [9-cis-retinoic acid]
- radioligand saturation binding (GST-TaRXR on beads) and competition (thrombin-cl): TaRXR prepared as thrombin cleaved TaRXR or GST-TaRXR binds 9-cis-RA with high affinity and specificity
